In US20160184274A1, “Methods for inhibiting mesenchymal phenotype after epithelial-to-mesenchymal transition” (Fibrostatin, S.L., priority 2014, published 2016):

How the values were obtained:
stem A549 cells = conditions: WO/2014/006020; cited from earlier work
[1] = test system: A549 cells expressing GPBP-EYFP; experiment: GPBP-induced phenotype transition, Western blot of markers; format: cell-based, Human; conditions: T12 10 μM, 24 h; FIG. 4
Description: FIG. 4. T12 inhibits GPBP-induced phenotype transition in A549 cultures. A549 cells expressing either GPBP-EYFP fusion protein or EYFP were cultured during 24 h in the presence (+) or absence (−) of T12 (10 μM.) Then cells were lysed and similar amounts of lysates were analyzed by Western blot with antibodies against the indicated proteins. Loading equivalence was confirmed by tubulin expression analysis in each of the individual experiments (not shown). To generate cells expressing GPBP fused to Enhanced Yellow Fluorescent Protein (GPBP-EYFP) or EYFP, A549 cells were transfected either with pEYFP-N1-GPBP construct or with pEYFP-N1 vector (Clontech), expressing GPBP-EYFP and EYFP, respectively. Transfected cells were selected with 400 mg/L of geniticin and clones were isolated with a High SPEED CELL SORTER MOFLO® (Beckman-Coulter) and further cultured. Recombinant protein expression was assessed by immunofluorescence microscopy and by Western blot with anti-GPBP N27 mouse monoclonal antibodies. For Western blot analysis, cells were lysed in TBS supplemented with 1% Triton X-100, 0.1% SDS, 1 mM PMSF, 10 μg/mL leupeptine and 20 mM NaF during 30 min at 4° C. Lysates were centrifuged (16,000×g, 5 min, 4° C.) and supernatants were collected and protein concentration determined (Bio-Rad Protein Assay). Samples were subjected to reducing SDS-PAGE and electro-transference onto PVDF membrane. […]

COc1ccc(-c2ccc(-c3cccc(C)c3)c(C)c2)c(CCC(=O)O)c1 [T12, 3-[4″-methoxy-3,2′-dimethyl-(1,1′;4′,1″)terphenyl-2″-yl] propionic acid]
doxorubicin accumulation and viability (stem A549 cells): accumulated doxorubicin reducing viability
effect on GPBP-EYFP-induced changes of vimentin, phospho p70-S6 kinase and E-cadherin [1]: counteracted all these regulatory effects
